Laboratory results: patent publication US20260209234A1, “SUBSTITUTED DIHYDROPYRROLO[3,4-D]PYRIMIDINE COMPOUNDS AND THEIR USE IN TREATING MEDICAL CONDITIONS” (Karuna Therapeutics, Inc., priority 2022, published 2026)

Assays:
[1] = tested on: Sprague Dawley rats pre-treated with amphetamine; assay: Amphetamine-evoked hyperlocomotion in rats; format: in vivo, rat; settings: male Sprague Dawley rats; 0.5 mg/kg amphetamine s.c.; open field, distance traveled
Experimental: Animals: Adult male, Sprague Dawley rats (Envigo, Indianapolis, IN, USA) were housed in a colony maintained at 23° C. with 12 hour light/dark cycles (lights on at 0600 hour). All animals weighed 290-330 g at the beginning of the study and were equally divided into 5 groups (n=8 per group) and received one of the treatment conditions listed below. Animal protocols were approved by an Animal Care and Use Committee.
Behavioral Procedures: Studies were conducted in MedAssociates open field chambers (27.3 cm×27.3 cm×20.3 cm, MedAssociates, St. Albans, VT) in which movement was automatically tracked and recorded by 16 beam arrays. Administration pretreatment of the test article was determined to coincide with Tmax at the time of the amphetamine-evoked session with optimal route of administration. All groups were subcutaneously treated with 0.5 mg/kg amphetamine (AMP). […] Locomotor data (distance traveled) was recorded as 5-minute bins throughout the 90-minute session. […]
Statistical Analysis: Spontaneous locomotion (prior to AMP administration) was calculated as the total distance traveled during the first 30 minutes of the experimental session. AMP-evoked responses were calculated as the total distance traveled during the last 60 minutes of the experimental session which commenced immediately after AMP administration. Locomotor data were analyzed by a one-way ANOVA. […]

rM4 receptors = target: T1, rM4 receptors (Rattus norvegicus, UniProt P08485); assay: Rat M4 PAM pERK assay; format: cell-based; settings: CHO cells expressing rM4; EC20 of acetylcholine (10 nM final); TR-FRET
T1 construct: expressed in transfected cells; host or cells: CHO cells
T1 sequence (P08485 1-478): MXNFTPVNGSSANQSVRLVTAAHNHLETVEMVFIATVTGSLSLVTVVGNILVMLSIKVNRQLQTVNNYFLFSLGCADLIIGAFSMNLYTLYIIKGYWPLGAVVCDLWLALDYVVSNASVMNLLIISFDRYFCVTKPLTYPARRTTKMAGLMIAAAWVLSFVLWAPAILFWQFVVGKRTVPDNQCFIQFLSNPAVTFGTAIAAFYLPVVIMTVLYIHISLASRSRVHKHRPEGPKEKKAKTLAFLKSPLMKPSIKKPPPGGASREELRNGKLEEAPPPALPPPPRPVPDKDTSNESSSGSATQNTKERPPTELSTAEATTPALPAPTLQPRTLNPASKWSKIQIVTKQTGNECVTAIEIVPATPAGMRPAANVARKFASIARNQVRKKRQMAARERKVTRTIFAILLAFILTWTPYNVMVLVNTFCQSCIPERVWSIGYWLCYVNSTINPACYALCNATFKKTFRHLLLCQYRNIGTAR

| Structure (SMILES) | Dose Amount of Compound at which rats displayed a reduction in amphetamine-evoked hyperlocomotion activity [1] [mg/kg] | EC50 (rM4 receptors) [nM] |
| --- | --- | --- |
| COc1nc(C#N)nc2c1C(C)N(C(=O)CC1CN(c3ccnc(C(F)(F)F)c3)C1)C2 (single isomer, unassigned) [Compound I-6, 4-Methoxy-5-methyl-6-(2-(1-(2-(trifluoromethyl)pyridin-4-yl)azetidin-3-yl)acetyl)-6,7-dihydro-5H-pyrrolo[3,4-d]pyrimidine-2-carbonitrile] | >32 | 100 to 500 |
| COc1nc(C)nc2c1C(C)N(C(=O)CC1CN(c3ccnc(C(F)(F)F)c3)C1)C2 (single isomer, unassigned) [Compound I-52, 1-(4-Methoxy-2,5-dimethyl-5,7-dihydro-6H-pyrrolo[3,4-d]pyrimidin-6-yl)-2-(1-(2-(trifluoromethyl)pyridin-4-yl)azetidin-3-yl)ethan-1-one] | 32 | 100 to 500 |
